US7179819B2, “VLA-4 inhibitor compounds” (Daiichi Pharmaceutical Co., Ltd., priority 1999, dated 2007)

Assays:
[1] = Mouse bio-assay: serum concentration after oral dosing, determined by direct binding assay of diluted serum; settings: female, Balb/c, serum, po; for concentration at 15 min: 10 mg/kg
Experimental: A compound was dissolved or suspended with an appropriate solvent at 1 mg/mL. Female Balb/c mice (7–9 weeks old) were given the compound orally. Blood samples were collected from the postcaval vein of the anesthetized mice after fifteen minutes. Serum was prepared and stored at −20° C. Serum concentration of the compound was determined from inhibitory activities of the diluted serum by a direct binding assay using VLA-4-expressing cells and VCAM-IgG fusion protein. Serum concentration determined by this method correlated well with the concentration determined by LC/MS/MS methodologies.

SMILES	melting point	also measured
COc1cc(CC(=O)N2CCC[C@H]2COc2ccc(C(=O)O)cc2)ccc1NC(=O)Nc1ccccc1Cl [Compound 58, 4-[1-[4-[N′-(2-chlorophenyl)ureido]-3-methoxylphenylacetyl]-(2S)-pyrrolindinyl]methoxybenzoic acid]		concentration at 30 min ([1]; 50 mg/kg): 3610 ng/mL
Cc1ccccc1NC(=O)Nc1ccc(CC(=O)N2C[C@@H](F)C[C@H]2COc2ccc(C(=O)O)cc2)cc1C [Compound 78, 4-[(4S)-fluoro-1-[3-methyl-4-[N′-(2-methylphenyl)ureido]phenylacetyl]-(2S)-pyrrolidinyl]methoxybenzoic acid]		concentration at 15 min [1]: 368 ng/mL
Cc1ccccc1NC(=O)Nc1ccc(CC(=O)N2C[C@@H](F)C[C@H]2COc2ccc(C(=O)O)cc2)c(F)c1F [Compound 97, 4-[1-[4-[N′-(2-methylphenyl)ureido]-2,3 difluorophenylacetyl]-(4S)-fluoro-(2S)-pyrrolidinylmethoxy]benzoic acid]		concentration at 15 min [1]: 1730 ng/mL
Cc1ccccc1NC(=O)Nc1cc(F)c(CC(=O)N2C[C@@H](F)C[C@H]2COc2ccc(C(=O)O)cc2)cc1F [Compound 98, 4-[1-[4-[N′-(2-methylphenyl)ureido]-2,5-difluorophenylacetyl]-(4S)-fluoro-(2S)-pyrrolidinylmethoxy]benzoic acid]		concentration at 15 min [1]: 2800 ng/mL
COc1cc(CC(=O)N2C[C@@H](Oc3ccc4ccccc4c3)C[C@H]2COc2ccc(C(=O)O)cc2)ccc1NC(=O)Nc1ccccc1Cl [Compound 124, 4-[(2S,4S)-1-[4-[N′-(2-chlorophenyl)ureido]-3-methoxyphenylacetyl]-4-(2-naphtyloxy)-2-pyrrolidinyl]methoxybenzoic acid]		concentration at 15 min [1]: 841 ng/mL
COc1cc(CC(=O)N2C[C@@H](OC)C[C@H]2COc2ccc(C(=O)O)cc2)ccc1NC(=O)Nc1ccccc1Br [Compound 134, 4-[(2S,4S)-1-[4-[N′-(2-bromophenyl)ureido]-3-methoxyphenylacetyl]-4-methoxy-2-pyrrolidinyl]methoxybenzoic acid]		concentration at 15 min [1]: 224 ng/mL
COc1cc(CC(=O)N2[C@H](COc3ccc(C(=O)O)cc3)CC[C@@H]2c2ccccc2)ccc1NC(=O)Nc1ccccc1Cl [Compound 146, 4-[1-[4-[N′-(2-chlorophenyl)ureido]-3-methoxyphenylacetyl]-5-(R)-phenyl-2-(S)-pyrrolidinylmethoxy]benzoic acid]		concentration at 15 min [1]: 527 ng/mL
Cc1ccccc1NC(=O)Nc1ccc(CC(=O)N[C@@H](C)COc2ccc(C(=O)O)cc2)cc1 [Compound 273, (S)-4-[2-[4-[N′-(2-methylphenyl)ureido]phenylacetylamino]-1-propoxy]benzoic acid]	262 to 265 °C	
Cc1ccccc1NC(=O)Nc1ccc(CC(=O)N[C@@H](C)COc2ccc(C(=O)O)cc2Cl)cc1 [Compound 274, (S)-3-chloro-4-[2-[4-[N′-(2-methylphenyl)ureido]phenylacetylamino]-1-propoxy]benzoic acid]	228 to 231 °C	
COc1cc(CC(=O)N(Cc2ccccc2)[C@@H](C)COc2ccc(C(=O)O)cc2Cl)ccc1NC(=O)Nc1ccccc1F [Compound 287, (S)-3-chloro-4-[2-[N-benzyl-N-[3-methoxy-4-[N′-(2-fluorophenyl)ureido]phenylacetyl]amino]-1-propoxy]benzoic acid]	125 to 130 °C	
COc1cc(CC(=O)N[C@@H](C)COc2ccc(C(=O)O)cc2)ccc1NC(=O)Nc1ccccc1Br [Compound 294, (S)-4-[2-[3-methoxy-4-[N′-(2-bromophenyl)ureido]phenylacetylamino]-1-propoxy]benzoic acid]	202 to 205 °C	
COc1cc(CC(=O)N(C)CCNc2ccc(C(=O)O)c(NC(C)=O)c2)ccc1NC(=O)Nc1ccccc1Br [Compound 303, 2-acetylamino-4-[2-N-[4-[N′-(2-bromophenyl)ureido]-3-methoxyphenyl]-N-methylacetamido]ethylaminobenzoic acid]	155 to 160 °C	
C#CCN(CCOc1ccc(C(=O)O)cc1)C(=O)Cc1ccc(NC(=O)Nc2ccccc2Cl)c(OC)c1 [Compound 309, 4-[2-N-[4-[N′-(2-chlorophenyl)ureido]-3-methoxyphenyl]-N-propargylacetamido]-ethoxybenzoic acid]		concentration at 15 min [1]: 669 ng/mL
Cc1cc(CC(=O)N2C[C@@H](F)C[C@H]2COc2ccc(C(=O)O)cc2)ccc1NC(=O)Nc1c(Cl)cccc1Cl [Example 83, 4-[(2S, 4S)-1-[4-[N′-(2,6-Dichlorophenyl)ureido]-3-methylphenylacetyl]4-fluoro-2-pyrrolidinyl]methoxybenzoic acid]	174 to 180 °C (dec.)	
COc1cc(CC(=O)N2C[C@@H](NS(=O)(=O)c3cccc4c(N(C)C)cccc34)C[C@H]2COc2ccc(C(=O)O)cc2)ccc1NC(=O)Nc1ccccc1Br [Example 155, 4-[1-[4-[N′-(2-bromophenyl)ureido]-3-methoxyphenylacetyl]-4dansylamino-(2S)-pyrrolidinyl]methoxybenzoic acid]	138 to 141 °C	

Second part, led by results:

melting point	SMILES	also measured
198 to 201 °C	COc1cc(CC(=O)N[C@@H](C)COc2ccc(C(=O)O)cc2Cl)ccc1NC(=O)Nc1ccccc1C [Compound 275, (S)-3-chloro-4-[2-[3-methoxy-4-[N′-(2-methylphenyl)ureido]phenylacetylamino]-1-propoxy]benzoic acid]	
125 to 130 °C	COc1cc(CC(=O)N(C)CCOc2ccc(C(=O)O)cc2N(C)C)ccc1NC(=O)Nc1ccccc1C [Compound 276, 3-dimethylamino-4-[[2-[3-methoxy-4-[N′-(2-methylphenyl)ureido]phenylacetyl]methylamino]ethoxy]benzoic acid]	
120 to 125 °C	COc1cc(CC(=O)N(C)CCOc2ccc(C(=O)O)cc2N(C)C)ccc1NC(=O)Nc1ccccc1F [Compound 277, 3-dimethylamino-4-[[2-[3-methoxy-4-[N′-(2-fluorophenyl)ureido]phenylacetyl]methylamino]ethoxy]benzoic acid]	
110 to 115 °C	Cc1ccccc1NC(=O)Nc1ccc(CC(=O)N(C)CCOc2ccc(C(=O)O)cc2N(C)C)cc1 [Compound 278]	
195 to 200 °C	COc1cc(CC(=O)N(C)CCOc2ccc(C(=O)O)cc2NC(C)C)ccc1NC(=O)Nc1ccccc1F [Compound 279, 3-isopropylamino-4-[[2-[3-methoxy-4-[N′-(2-fluorophenyl)ureido]phenylacetyl]methylamino]ethoxy]benzoic acid]	
188 to 191 °C	COc1cc(CC(=O)N[C@@H](C)COc2ccc(C(=O)O)cc2Cl)ccc1NC(=O)Nc1ccccc1F [Compound 281, (S)-3-chloro-4-[2-[3-methoxy-4-[N′-(2-fluorophenyl)ureido]phenylacetylamino]-1-propoxy]benzoic acid]	
115 to 120 °C	COc1cc(CC(=O)N(C)CCNc2ccc(C(=O)O)cc2)ccc1NC(=O)Nc1ccccc1C [Compound 282, 4-[[2-[3-methoxy-4-[N′-(2-methylphenyl)ureido]phenylacetyl]methylamino]ethylamino]benzoic acid]	
142 to 147 °C	COc1cc(CC(=O)N(C)[C@@H](C)COc2ccc(C(=O)O)cc2Cl)ccc1NC(=O)Nc1ccccc1F [Compound 283, (S)-3-chloro-4-[2-[N-methyl-N-[3-methoxy-4-[N′-(2-fluorophenyl)ureido]phenylacetyl]amino]-1-propoxy]benzoic acid]	
125 to 130 °C	COc1cc(CC(=O)N(C)[C@@H](C)COc2ccc(C(=O)O)cc2Cl)ccc1NC(=O)Nc1ccccc1C [Compound 284]	
130 to 135 °C	COc1cc(CC(=O)N(C)CCOc2ccc(C(=O)O)cc2NC(C)C)ccc1NC(=O)Nc1ccccc1C [Compound 285, 3-isopropylamino-4-[[2-[3-methoxy-4-[′-(2-methylphenyl)ureido]phenylacetyl]methylamino]ethoxy]benzoic acid]	
125 to 130 °C	COc1cc(CC(=O)N(C)CCN(C)c2ccc(C(=O)O)cc2)ccc1NC(=O)Nc1ccccc1C [Compound 286, 4-[[2-[3-methoxy-4-[N′-(2-methylphenyl)ureido]phenylacetyl]methylamino]ethyl]methylamino benzoic acid]	
130 to 135 °C	COc1cc(CC(=O)N(C)CCOc2ccc(C(=O)O)cc2N(C)C(C)C)ccc1NC(=O)Nc1ccccc1C [Compound 288, 3-(N-isopropyl-N-methylamino)-4-[[2-[3-methoxy-4-[N′-(2-methylphenyl)ureido]phenylacetyl]methylamino]ethoxy]benzoic acid]	
125 to 130 °C	COc1cc(CC(=O)N(C)CCOc2ccc(C(=O)O)cc2N2CCCCC2)ccc1NC(=O)Nc1ccccc1F [Compound 289, 3-(1-piperidinyl)-4-[[2-[3-methoxy-4-[N′-(2-fluorophenyl)ureido]phenylacetyl]methylamino]ethoxy]benzoic acid]	
125 to 130 °C	COc1cc(CC(=O)N(C)CCOc2ccc(C(=O)O)cc2N)ccc1NC(=O)Nc1ccccc1C [Compound 290, 3-amino-4-[[2-[3-methoxy-4-[N′-(2-methylphenyl)ureido]phenylacetyl]methylamino]ethoxy]benzoic acid]	
120 to 125 °C	COc1cc(CC(=O)N(C)CCOc2ccc(C(=O)O)cc2N2CCCCC2)ccc1NC(=O)Nc1ccccc1C [Compound 291, 3-(1-piperidinyl)-4-[[2-[3-methoxy-4-[N′-(2-methylphenyl)ureido]phenylacetyl]methylamino]ethoxy]benzoic acid]	
125 to 130 °C	COc1cc(CC(=O)N(C)CCOc2ccc(C(=O)O)cc2N)ccc1NC(=O)Nc1ccccc1F [Compound 292, 3-amino-4-[[2-[3-methoxy-4-[N′-(2-fluorophenyl)ureido]phenylacetyl]methylamino]ethoxy]benzoic acid]	
200 to 204 °C	COc1cc(CC(=O)N[C@@H](C)COc2ccc(C(=O)O)cc2N)ccc1NC(=O)Nc1ccccc1C [Compound 293, (S)-3-amino-4-[2-[3-methoxy-4-[N′-(2-methylphenyl)ureido]phenylacetylamino]-1-propoxy]benzoic acid]	
